Source: patent US20070292888A1, “Methods for Measuring Enzyme Activities in Cells, Blood, Tumors and Tissues” (GEN-PATH PHARMACEUTICALS, INC., priority 2004, published 2007)

Key:
[1] = biological target: T1, glucose-6-phosphate dehydrogenase (G6PDH) (Mus musculus, UniProt Q00612); test: Glucose-6-phosphate dehydrogenase activity in tissues of treated mice (fluorescence NADPH assay); type: in vivo; settings: 11 days i.p. twice per day, various organs
T1 construct: from tissue; host or cells: mouse tumor, blood, brain, heart, kidney, liver, lung, spleen (crude lysates)
Procedure: Blood samples from mice were taken (40 μl whole blood) serially or from mice sacrificed at the end of the experiment. Tissues, such as tumors (e.g. from implantation, xenograft, or arising spontaneously), brain, heart, kidney, liver, lung and spleen were taken and flash frozen in liquid nitrogen or on dry ice and stored in −80° C. until time of assay. Four volumes of cold lysis buffer (20 mM HEPES, pH 7.5, 1 mM EDTA, 0.2 g/l Triton X-100® and 0.2 g/L sodium deoxycholate, supplemented with 1 mM DTT and 1 mM PMSF just before use) were added to the blood, which was dissolved by vortexing. For blood that was frozen before coagulation, a clear lysate was obtained. […]
Each reaction was monitored for the appearance of NADH (for transketolase, alpha-ketoglutarate dehydrogenase, pyruvate dehydrogenase) or NADPH (for glucose-6-phosphate dehydrogenase) at room temperature in a fluorescent plate reader with excitation at 340 nm and emission at 470 nm in kinetic mode. The velocity was determined by the slope of the initial linear range of increasing fluorescence, expressed in fluorescent units (FU)/min. The protein concentration in the lysate was determined using Bradford assays (BioRad) with BSA as a standard. […]
We measured enzyme activity in an expanded panel of tissues from mice treated with N3PT or OxyT for 11 days i.p., twice per day. […]

transketolase (TK) = biological target: T2, transketolase (TK) (Mus musculus, UniProt P40142); test: Transketolase activity in blood, tumors and tissues of treated mice (fluorescence NADH assay); type: in vivo
T2 construct: from tissue; host or cells: mouse blood, spleen, tumor, kidney, lung, liver (crude lysates)
T2 sequence (P40142 1-623): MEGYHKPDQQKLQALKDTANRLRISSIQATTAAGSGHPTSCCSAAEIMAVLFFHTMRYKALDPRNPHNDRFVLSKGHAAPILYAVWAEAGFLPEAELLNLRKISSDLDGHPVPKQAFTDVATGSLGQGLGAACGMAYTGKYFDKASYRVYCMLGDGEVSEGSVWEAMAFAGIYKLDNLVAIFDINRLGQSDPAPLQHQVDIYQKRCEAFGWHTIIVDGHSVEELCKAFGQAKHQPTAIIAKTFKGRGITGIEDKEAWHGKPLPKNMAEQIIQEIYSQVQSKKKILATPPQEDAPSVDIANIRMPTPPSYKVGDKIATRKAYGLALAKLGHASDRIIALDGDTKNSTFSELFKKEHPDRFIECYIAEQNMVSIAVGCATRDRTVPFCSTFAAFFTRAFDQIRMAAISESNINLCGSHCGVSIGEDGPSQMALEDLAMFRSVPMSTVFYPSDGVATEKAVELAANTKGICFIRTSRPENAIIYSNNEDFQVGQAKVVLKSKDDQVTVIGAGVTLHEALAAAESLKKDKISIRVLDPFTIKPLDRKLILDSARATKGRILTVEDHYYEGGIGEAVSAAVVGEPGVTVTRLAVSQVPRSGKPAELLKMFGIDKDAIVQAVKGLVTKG
Procedure: Blood samples from mice were taken (40 μl whole blood) serially or from mice sacrificed at the end of the experiment. Tissues, such as tumors (e.g. from implantation, xenograft, or arising spontaneously), brain, heart, kidney, liver, lung and spleen were taken and flash frozen in liquid nitrogen or on dry ice and stored in −80° C. until time of assay. Four volumes of cold lysis buffer (20 mM HEPES, pH 7.5, 1 mM EDTA, 0.2 g/l Triton X-100® and 0.2 g/L sodium deoxycholate, supplemented with 1 mM DTT and 1 mM PMSF just before use) were added to the blood, which was dissolved by vortexing. For blood that was frozen before coagulation, a clear lysate was obtained. If coagulation occurred, homogenization was used as described below for tissue. Tissues were suspended in lysis buffer in 10 ml round bottom tubes and homogenized with PowerGen 125® (Fisher Scientific) for four seconds at highest power while submerged in an ice-water bath. This step was repeated after a few seconds, as necessary. The lysate was used right away or else flash frozen and stored at −80° C. until assay time. Eighty microliters (80 μl) of lysate (containing 5 mg tissue/ml lysate for TK and kGDH, 0.5 mg/ml for G6PDH) were put directly in individual wells of a 96-well clear-bottomed assay plate. Twenty microliters (20 μl) of 5× reaction mix was added to initiate each enzymatic reaction.
Each reaction was monitored for the appearance of NADH (for transketolase, alpha-ketoglutarate dehydrogenase, pyruvate dehydrogenase) or NADPH (for glucose-6-phosphate dehydrogenase) at room temperature in a fluorescent plate reader with excitation at 340 nm and emission at 470 nm in kinetic mode. The velocity was determined by the slope of the initial linear range of increasing fluorescence, expressed in fluorescent units (FU)/min. The protein concentration in the lysate was determined using Bradford assays (BioRad) with BSA as a standard. The enzymatic velocity was normalized by the total protein concentration for inter-sample comparison. To obtain reliable results across samples, similar starting protein concentrations were prepared (within approximately 30%) so that the normalized velocity required only small adjustments. This was achieved by weighing the tissue and putting in lysis buffer so that the suspensions contained the same amount of tissue/ml lysis buffer for all samples.
For TK, 15 μl of 5× assay buffer containing final concentrations of 50 mM HEPES, 40 mM KCl, 2.5 mM MgCl2, 5 mM NaArsenate, 1 mM NAD, 2 unit/ml glyceraldehydes-3-phosphate dehydrogenase (GAPDH) was added to 80 μl of lysate. Reaction kinetics were monitored on a fluorescent plate reader to allow any possible background activity via GAPDH to burn out. Then 5 μl of substrate mix containing final concentrations of 0.5 mM ribose-5-phosphate and 0.5 mM xylulose-5-phosphate was added to initiate the reaction. The reaction kinetics were monitored using a fluorescent plate reader, and the slope of the initial linear range was recorded as the velocity of the reaction (FU/min). See FIG. 1 for the reaction scheme.
To investigate the amount of in vivo enzyme inhibition following treatment with an inhibitor, we administered a single dose of N3PT (100 mg/kg, intraperitoneally [i.p.]) and blood, spleen and brain samples were collected at various times from 0-120 hours after dosing. The enzymatic activities were determined as described in Example 1. TK activity was measured in blood and spleen. Because TK activity in the brain is below the detection limit of the assay, kGDH activity was measured in brain samples. Measurements were taken at various time intervals
We measured enzyme activity in an expanded panel of tissues from mice treated with N3PT or OxyT for 11 days i.p., twice per day. Samples were taken from tumors, blood, brain, heart, kidney, lung and spleen, and TK, kGDH and G6PDH activities were determined as described above.

T1 sequence (Q00612 whole entry): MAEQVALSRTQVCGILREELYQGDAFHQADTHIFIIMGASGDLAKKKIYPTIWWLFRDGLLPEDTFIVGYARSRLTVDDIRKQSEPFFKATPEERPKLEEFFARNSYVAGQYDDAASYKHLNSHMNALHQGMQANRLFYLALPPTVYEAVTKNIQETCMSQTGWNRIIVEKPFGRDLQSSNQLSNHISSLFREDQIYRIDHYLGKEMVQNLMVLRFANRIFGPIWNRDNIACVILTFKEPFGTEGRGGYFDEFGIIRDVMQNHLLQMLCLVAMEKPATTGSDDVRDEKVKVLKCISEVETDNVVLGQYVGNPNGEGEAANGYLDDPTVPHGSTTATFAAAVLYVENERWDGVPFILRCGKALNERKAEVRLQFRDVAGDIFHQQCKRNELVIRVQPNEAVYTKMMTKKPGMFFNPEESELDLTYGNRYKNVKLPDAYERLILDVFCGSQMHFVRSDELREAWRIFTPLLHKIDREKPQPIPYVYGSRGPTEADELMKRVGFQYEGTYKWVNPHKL

In the case of Cc1ccc(C[n+]2csc(CCO)c2C)c(N)n1 [N3PT, 3-[(2-amino-6-methyl-3-pyridinyl)methyl]-5-(2-hydroxyethyl)-4-methyl thiazolium], the “G6PDH enzymatic activity following treatment” value [1] is reported as “no significant decrease”, the “percent inhibition of TK activity in tumors” value (transketolase (TK); 11 days i.p. twice per day, 100 mg/kg, compared to vehicle control) is reported as 70% and the “liver enzymatic (TK) activity” value (transketolase (TK); 11 days i.p. twice per day, liver) is reported as “hardly affected”. For the same compound, the “Inhibition of transketolase activity in the spleen” value (transketolase (TK); single dose 100 mg/kg i.p., 8-24 hours post-treatment) was “up to 35%”, the “Transketolase inhibition at 1 hour post-treatment” value (transketolase (TK); single dose 100 mg/kg i.p., 1 hour post-treatment) was “detectable” and the “Transketolase inhibition at the final sampling at 120 hours” value (transketolase (TK); single dose 100 mg/kg i.p., 120 hours (5 days)) was “still evident”. The “inhibition of transketolase activity in the blood” value (transketolase (TK); single dose N3PT 100 mg/kg i.p., at the nadir (12 hours)) was 80%.
